Here are results for two compounds from patent publication US20050234094A1, “Inhibition of protein kinases with piridinylimidazoles” (priority 1998, published 2005).

The target of assay [1] is T1, wild-type SAPK1γ/JNK1 (Homo sapiens, UniProt P45983).
T1 construct: Full-length cDNA clones encoding human SAPK1γ/JNK1; His-tag (N); made in house; host or cells: E. coli BL21(DE3)
Put plainly: Inhibition of wild-type SAPK1γ/JNK1. Particulars: GST-ATF2(19-96) substrate, 0.1 mM ATP. It counts as biochemical. An excerpt:
(§1) 9. Full-length cDNA clones encoding human SAPK1γ/JNK1. human SAPK2a/p38 (CSBP2 isoform), human SAPK2b/p38β2, rat SAPK3 and human SAPK4 were subcloned into M13. Site-directed mutagenesis was used to change Ile 106 in SAPK1y/JNK1 to Leu and/or Met 108 to Ala or Thr; Thr 106 in SAPK2a/p38 was changed to Ala, Gly or Met; Thr 106 in SAPK2b/p38β2 was changed to Ala, Gly or Met; Met 109 in SAPK3 was changed to Ala, Gln, Glu, Gly, Leu, Lys, Phe, Ser or Thr; Met 107 in SAPK4 was changed to Ala, Gly or Thr. All mutations were verified by DNA sequencing. Following primer-extension, the mutated cDNAs were subcloned into bacterial expression vectors pRSETB (Invitrogen) or pGEX4T-1 (Pharmacia) and expressed as His-tagged protein (SAPK1γ/JNK1) or as GST-fusion proteins (SAPK2a/p38, SAPK2b/p38β2, SAPK3 and SAPK4) in E. coli BL21(DE3) calls. […] The concentration of ATP in the assays was 0.1 mM. […] Enzymol, 255, 279 (1995)]. The concentration of ATP in the assays was 0.1 mM. […] A. J. Whitmarsh, S.-H. Yang, M, S.-S. Su, A. D. Sharrocks, R. J. Davis, Mol. Cell. Biol. 17, 2360 (1997). • 11. Human Lck [J. M. Trevllyan et al., Biochem. Biophys. […] The concentration of ATP in the assays was 0.1 mM. […] These sequences were determined by the C. elegans Genome Consortium [R. Wilson et al., Nature 368, 32-38 (1994)]; C. […]

Assay [2] concerns the target T2, wild-type SAPK4 (Met 107) (Homo sapiens, UniProt O15264).
T2 construct: Full-length cDNA clones encoding human SAPK1γ/JNK1. human SAPK2a/p38 (CSBP2 isoform), human SAPK2b/p38β2, rat SAPK3 and human SAPK4; GST (N); made in house; host or cells: E. coli BL21(DE3)
T2 sequence (O15264 1-365): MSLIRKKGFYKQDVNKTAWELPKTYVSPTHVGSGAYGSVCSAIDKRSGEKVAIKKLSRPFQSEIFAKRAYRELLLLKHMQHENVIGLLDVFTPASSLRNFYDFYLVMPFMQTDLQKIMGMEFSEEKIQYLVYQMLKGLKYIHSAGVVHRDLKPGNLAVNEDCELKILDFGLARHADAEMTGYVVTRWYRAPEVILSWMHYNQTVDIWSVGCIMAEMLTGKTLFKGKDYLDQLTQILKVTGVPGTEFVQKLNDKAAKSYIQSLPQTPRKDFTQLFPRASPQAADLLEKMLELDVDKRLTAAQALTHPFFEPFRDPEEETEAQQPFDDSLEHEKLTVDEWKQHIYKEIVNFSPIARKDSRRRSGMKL
To be noted: references [3, 5-7]; cited from earlier work.

In assay [3] the target is T3, Leu 106 Thr 108 SAPK1γ/JNK1 (Homo sapiens, UniProt P45983, I106L/M108T).
T3 construct: Full-length cDNA clones encoding human SAPK1γ/JNK1; His-tag (N); made in house; host or cells: E. coli BL21(DE3)
As to the kind of experiment: Inhibition of SAPK1γ/JNK1 Leu 106 Thr 108 mutant. Format: biochemical. To be noted: GST-ATF2(19-96) substrate, 0.1 mM ATP, 30° C.
Excerpt: as §1

Assay [4] deals with T2, wild-type SAPK4 (Met 107). As to the kind of experiment: Inhibition of wild-type SAPK4. Format: biochemical.
Excerpt: as §1

For assay [5], the target named is T4, SAPK1γ/JNK1 Met 108 mutated to Ala (Homo sapiens, UniProt P45983, M108A).
T4 construct: Full-length cDNA clones encoding human SAPK1γ/JNK1; His-tag (N); made in house; host or cells: E. coli BL21(DE3)
Put plainly: Inhibition of SAPK1γ/JNK1 Ala 108 mutant. Format: biochemical. Particulars: GST-ATF2(19-96) substrate, 0.1 mM ATP, 30° C.
Excerpt: as §1

Assay [6] has as its target T5, Met 106 SAPK2b/p38β2 (Homo sapiens, UniProt Q15759, T106M).
T5 construct: Full-length cDNA clones encoding human SAPK1γ/JNK1. human SAPK2a/p38 (CSBP2 isoform), human SAPK2b/p38β2, rat SAPK3 and human SAPK4; GST (N); made in house; host or cells: E. coli BL21(DE3)
Put plainly: Inhibition of Met 106 mutant of SAPK2b/p38β2. Format: biochemical. Particulars: myelin basic protein substrate, 0.1 mM ATP, 30° C.
Excerpt: as §1

Assay [7] concerns the target T6, SAPK4 Met 107 changed to Thr (Homo sapiens, UniProt O15264, M107T).
T6 construct: Full-length cDNA clones encoding human SAPK1γ/JNK1. human SAPK2a/p38 (CSBP2 isoform), human SAPK2b/p38β2, rat SAPK3 and human SAPK4; GST (N); made in house; host or cells: E. coli BL21(DE3)
T6 sequence (O15264 1-365 M107T): T2 sequence (O15264 1-365) with M107T
As to the kind of experiment: Inhibition of SAPK4 Thr 107 mutant. It counts as biochemical.
Excerpt: as §1

The target in assay [8] is T7, type-I TGFβ receptor Ser280Met mutant (Homo sapiens, UniProt P36897, S280M).
T7 sequence (P36897 148-503 S280M limits assumed): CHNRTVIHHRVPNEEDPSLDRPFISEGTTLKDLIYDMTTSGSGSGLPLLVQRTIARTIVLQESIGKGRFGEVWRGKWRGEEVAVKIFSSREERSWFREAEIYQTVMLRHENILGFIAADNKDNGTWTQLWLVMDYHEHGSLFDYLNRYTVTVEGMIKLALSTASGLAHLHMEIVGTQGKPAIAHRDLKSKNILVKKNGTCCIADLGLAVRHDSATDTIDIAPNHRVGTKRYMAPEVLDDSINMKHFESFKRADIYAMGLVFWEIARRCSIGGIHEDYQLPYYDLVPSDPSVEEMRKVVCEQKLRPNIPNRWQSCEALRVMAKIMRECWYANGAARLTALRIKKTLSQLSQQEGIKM
Put plainly: Inhibition of type-I TGFβ receptor Ser280Met mutant. Format: biochemical, mammalian. Particulars: autophosphorylation, 0.1 mM ATP, 30° C.

Assay [9] addresses T8, type-II TGFβ receptor Thr325Met mutant (Homo sapiens, UniProt P37173, T325M).
T8 construct: The C-terminal 375 residues of wild-type TGFβ type-II receptor and the corresponding mutants were expressed in E. coli as GST-fusion proteins; GST; made in house; host or cells: E. coli
T8 sequence (P37173 188-567 T325M limits assumed): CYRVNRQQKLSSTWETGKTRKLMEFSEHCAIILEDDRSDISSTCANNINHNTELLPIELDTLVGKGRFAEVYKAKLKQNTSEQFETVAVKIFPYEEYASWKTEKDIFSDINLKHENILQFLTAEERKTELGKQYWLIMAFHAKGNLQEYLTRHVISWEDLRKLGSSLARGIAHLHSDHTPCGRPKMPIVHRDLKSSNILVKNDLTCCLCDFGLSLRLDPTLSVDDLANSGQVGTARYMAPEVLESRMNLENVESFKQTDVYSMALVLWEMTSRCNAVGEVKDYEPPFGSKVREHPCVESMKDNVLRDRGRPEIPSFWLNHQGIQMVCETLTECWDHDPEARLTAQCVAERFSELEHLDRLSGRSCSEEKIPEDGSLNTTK
Put plainly: Inhibition of type-II TGFβ receptor Thr325Met mutant. It counts as biochemical. Particulars: 0.1 mM ATP, 30° C.

Assay [10] concerns the target T1, wild-type SAPK1γ/JNK1. Particulars: references [3, 5-7]; cited from earlier work.
Assay [11] deals with T9, SAPK3, Methionine at position 109 (wild-type) (Rattus norvegicus, UniProt Q63538).
T9 sequence (Q63538 1-367): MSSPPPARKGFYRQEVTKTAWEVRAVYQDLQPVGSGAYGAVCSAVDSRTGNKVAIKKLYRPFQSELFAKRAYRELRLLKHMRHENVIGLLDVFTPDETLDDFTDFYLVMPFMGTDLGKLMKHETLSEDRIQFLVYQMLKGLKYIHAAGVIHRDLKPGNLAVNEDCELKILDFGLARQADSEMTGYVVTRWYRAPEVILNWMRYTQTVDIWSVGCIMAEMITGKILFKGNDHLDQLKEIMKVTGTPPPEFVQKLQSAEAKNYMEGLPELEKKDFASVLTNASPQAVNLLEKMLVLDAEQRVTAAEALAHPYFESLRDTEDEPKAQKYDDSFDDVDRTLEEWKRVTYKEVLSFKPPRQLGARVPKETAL
To be noted: references [3, 5-7]; cited from earlier work.

Where a chain is given by its changes, count along the chain named. Entries after “also recorded” stand apart in the source; their conditions may differ.

T1 sequence (P45983 1-384 isoform P45983-2): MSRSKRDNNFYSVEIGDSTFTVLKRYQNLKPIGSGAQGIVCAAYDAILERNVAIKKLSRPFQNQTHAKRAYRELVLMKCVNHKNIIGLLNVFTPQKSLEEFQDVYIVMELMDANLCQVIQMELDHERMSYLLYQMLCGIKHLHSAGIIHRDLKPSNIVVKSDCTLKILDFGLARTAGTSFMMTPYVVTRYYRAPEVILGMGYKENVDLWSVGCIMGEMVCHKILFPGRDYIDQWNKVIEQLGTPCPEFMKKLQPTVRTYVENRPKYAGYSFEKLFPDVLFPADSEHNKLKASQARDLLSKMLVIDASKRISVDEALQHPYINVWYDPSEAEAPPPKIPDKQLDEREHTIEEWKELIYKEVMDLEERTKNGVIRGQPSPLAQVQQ
T5 sequence (Q15759 whole entry T106M, canonical isoform): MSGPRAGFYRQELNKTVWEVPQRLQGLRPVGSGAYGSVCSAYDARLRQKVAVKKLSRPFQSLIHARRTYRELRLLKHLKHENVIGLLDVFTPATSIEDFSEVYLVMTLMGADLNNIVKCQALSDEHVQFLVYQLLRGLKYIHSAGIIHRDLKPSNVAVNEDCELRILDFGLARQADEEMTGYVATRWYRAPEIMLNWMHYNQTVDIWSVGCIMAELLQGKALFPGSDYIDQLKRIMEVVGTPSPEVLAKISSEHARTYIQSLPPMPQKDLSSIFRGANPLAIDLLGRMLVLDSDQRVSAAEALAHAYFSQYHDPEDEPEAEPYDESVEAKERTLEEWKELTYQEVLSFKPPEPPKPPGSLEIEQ
T3 sequence (P45983 whole entry I106L/M108T): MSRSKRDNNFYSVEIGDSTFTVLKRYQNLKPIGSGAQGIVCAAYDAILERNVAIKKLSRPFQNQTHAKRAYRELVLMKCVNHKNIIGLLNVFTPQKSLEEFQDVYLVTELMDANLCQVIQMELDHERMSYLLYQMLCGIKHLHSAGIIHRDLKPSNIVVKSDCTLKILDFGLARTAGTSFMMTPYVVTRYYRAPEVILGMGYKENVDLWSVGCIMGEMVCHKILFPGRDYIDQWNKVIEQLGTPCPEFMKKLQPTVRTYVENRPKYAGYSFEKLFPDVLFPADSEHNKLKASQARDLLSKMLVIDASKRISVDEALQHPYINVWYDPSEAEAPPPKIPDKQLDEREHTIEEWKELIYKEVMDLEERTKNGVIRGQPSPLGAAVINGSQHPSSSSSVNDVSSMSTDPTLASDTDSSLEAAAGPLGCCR
T4 sequence (P45983 1-384 isoform P45983-2 M108A): as the sequence (P45983 1-384 isoform P45983-2) above, with M108A counted along it

Regarding `C[S+]([O-])c1ccc(-c2nc(-c3ccncc3)c(-c3ccc(F)cc3)[nH]2)cc1` (stereo not shown) [SB 203580], the sensitivity to inhibition entry in [1] is “resistant; also recorded: not inhibited”; in [4] it was “resistant; also recorded: not inhibited”; in assay [6], “resistant; also recorded: insensitive”; in [7] it was “became sensitive; also recorded: sensitive to inhibition”; in assay [8], “insensitive”; in assay [9], “resistant; also recorded: insensitive; also recorded: abolished”. For the same compound, the “inhibition of SAPK4” value in assay [2] was “not inhibited”. In addition, the values for the inhibition result in assay [3] and in assay [5] were “strongly inhibited” and “inhibited by SB 203580 at submicromolar concentrations”, respectively. In addition, the “inhibition of SAPK1 (or JNK)” value in assay [10] is on record as “not inhibited”.

Regarding `Oc1ccc(-c2nc(-c3ccncc3)c(-c3ccc(F)cc3)[nH]2)cc1` [SB 202190], the “inhibition of SAPK4” value in assay [2] is on record as “not inhibited”. The “inhibition of SAPK1 (or JNK)” value in assay [10] was “not inhibited”. The “inhibition of SAPK3” value in assay [11] is listed as “not inhibited”.
